Measured values reported in patent US20260283917A1, “ANTI-WRINKLE AGENT” (SHISEIDO COMPANY, LTD., priority 2023, published 2026).

Assays:
NEP = NEP gene expression analysis by real-time PCR in dermal fibroblasts; type: cell-based; conditions: Homo sapiens, NB1RGB, 48 h, read-out: NEP gene expression level
Procedure: (§1) As the control, a medium not comprising these components was used.
(§2) RNA concentrations were calculated using OD260 and diluted with TE Buffer to adjust the RNA concentrations to 10 μg/mL.
(§3) Reverse transcription of RNA was carried out using SuperScript™ IV VILO™ Master Mix with ezDNase (Cat No. 11766050, Invitrogen, USA). 4 μL of SuperScript™ IV VILO™ Master Mix and 6 μL of Nuclease-free Water were added per well in an 8-tube strip and heated at 25° C. for 10 min, 50° C. for 10 min, and 85° C. for 5 min using real-time PCR (QuantStudio (registered trademark) 3, Applied Biosystems, USA) to synthesize cDNA. 10 μL of TaqMan (registered trademark) Fast Advanced Master Mix (Cat No. 4444557, Applied Biosystems, USA), 1 μL of TaqMan Gene Expression, 7 μL of UltraPure™ Distilled Water (Invitrogen, Cat No. 10977-015, USA), and 2 μL of cDNA were added per well in a PCR plate and sealed. A primer (Hs00899658_ml) for MMP-1 and a primer (Hs00153510_ml) for NEP; and a primer (Hs02786624_g1) for GAPDH as an internal standard gene; were used to carry out real-time qPCR, the threshold cycle (Ct) value of each of the MMP-1 gene and the NEP gene in the medium supplemented with each component was calculated, and then Ct value was corrected with GAPDH to obtain a ΔCt value. Assuming that gene level doubles per cycle, when gene expression level of the control was set at 1, the gene expression level in the medium supplemented with each component was determined. In the analysis of gene expression level, the average value of 24-well plate×3 wells was used for each treatment group.

MMP-1 = MMP-1 gene expression analysis by real-time PCR in dermal fibroblasts; type: cell-based; conditions: Homo sapiens, NB1RGB, 48 h, read-out: MMP-1 gene expression level
Procedure: as §1, §2, §3

Type I collagen = test: Collagen production rate in culture supernatant by sandwich ELISA; type: cell-based; conditions: Homo sapiens, NB1RGB fibroblasts, 48 h, OD405/OD570, no-addition group = 100, read-out: Collagen production rate (%) per cell
Procedure: A supernatant of the culture cultured in 2-1 was dispensed into a new 96-well plate and frozen for storage (−80° C.). The collagen production rate in the culture supernatant was measured by sandwich ELISA, and the effect of citronellol on the collagen level was evaluated.
100 μL of culture supernatant diluted 4-fold with PBS(−) was added to a high-binding 96-well plate, and incubated overnight at 4° C. Type I collagen solution (Cat No. 009-001-103, RCK, USA) was used as a standard substance. […] The dye was uniformized within the 96-well plate, and then absorbance (OD405) at 405 nm was measured using a microplate reader.
Setting OD405 of the control group at 100%, the collagen production rate of citronellol was calculated. In addition, the OD405 of the control and citronellol were each divided by OD570 measured in 2-2 to calculate the collagen production rate per cell. Setting the collagen production rate per cell in the control group at 100%, the collagen production rate of citronellol per cell was calculated.

[1] = test system: human neonatal dermal fibroblast cell line NB1RGB
Procedure: After 24 h, the medium was removed and replaced with a medium to which citronellol (CAS number: 106-22-9, Wako Pure Chemical Industries, Ltd.) was added so as to have the final concentration shown in Table 3 below, and the cells were further cultured within the CO2 incubator for 48 h. As the control, a medium not comprising citronellol was used.
According to the following method, the effect of citronellol on proliferation of dermal fibroblasts was evaluated.
A 96-well plate from which the medium was removed was washed with 100 μL of PBS(−). 100 μL of 0.5 mg/mL 3-(4,5-dimethylthiazol-2-yl)-2,5-diphenyltetrazolium bromide (MTT, CAS No. 298-93-1, Sigma-Aldrich, USA) solution was then added and incubated within a CO2 incubator for 2 h. After removing the MTT solution and washing with 100 μL of PBS(−), 200 μL of 2-propanol (CAS No. 67-63-0, Wako, Japan) was added to dissolve the insoluble formazan. A dye was uniformly dispersed within the 96-well plate, and then absorbance (OD570) at 570 nm was measured using a microplate reader (SPARK (registered trademark), 10M TECAN, Switzerland). Setting OD570 of the control group at 100%, OD570 of the citronellol-added group, i.e., the effect on cell proliferation, was calculated as the cell-activating effect (%) of citronellol. In the analysis of cell-activating effect, the average value of 96-well plate 9×3 wells was used for each treatment group.

## c1ccc2[nH]ccc2c1 [Indole]
NEP
  fold induction at 50 µM: 0.4
MMP-1
  fold induction at 50 µM: 0.36

## CCCCCOC(=O)CCC [Amyl butyrate]
NEP
  fold induction at 50 µM: 0.43
MMP-1
  fold induction at 50 µM: 0.24

## CC(C)=CCCC(C)=CCCC(C)=CCO [Farnesol]
NEP
  fold induction at 50 µM: 0.44
MMP-1
  fold induction at 50 µM: 0.22

## CC(C)=CCCC(C)CCO (stereo not shown) [Citronellol]
NEP
  fold induction at 50 µM: 0.85
Type I collagen
  activity at 50 µM: 102%
MMP-1
  fold induction at 50 µM: 0.25
[1]
  cell-activating effect / toxicity (proliferation of fibroblasts, MTT): no cell-activating effect or toxicity
